{
  "source": "paper PMC8495455",
  "about": "“Discovery of a transdermally deliverable pentapeptide for activating AdipoR1 to promote hair growth” (EMBO Molecular Medicine, 2021)",
  "key": {"[1]": {"test_system": "AMPK phosphorylation through AdipoR1 in DP cells", "experiment": "Western blot p-AMPK in AdipoR1 siRNA-transfected DP cells", "type": "cell-based, human", "description": "Following the confirmation of the molecular interaction between AdipoR1 and P5, we evaluated the activation of the intracellular signaling pathway by P5. We investigated whether APN treatment on ORS and DP cells could activate AMPK or ERK signaling pathways, which are previously known to be downstream effectors of AdipoR1 (Mao et al, [2006]; Deepa & Dong, [2009]; Shibata et al, [2012]). […] Next, for determination of whether both P5 and APN mediates the phosphorylation of AMPK through AdipoR1 in ORS and DP cells, the cells were transfected with AdipoR1 siRNA (Appendix Fig S1). […] Collectively, P5 activates AMPK signaling pathway through AdipoR1 in ORS and DP cells in vitro.\nAll transfections were performed using Lipofectamine 2000 following the manufacturer’s instructions (#11668019; Thermo Fisher). Human DP and ORS cells were cultured without antibiotics until reaching 50% confluency. AdipoR1 or scrambled siRNA (Bioneer) was used. The culture medium was changed 6 h after transfection, and the cells were incubated for another 24 h before subsequent analyses.\nHuman ORS and DP cells or skin tissue were lysed (RIPA lysis buffer; #20‐188; Merck Millipore). […] Antibody‐antigen complexes detected by enhanced chemiluminescent substrate (Thermo Fisher) were captured and quantified by Amersham imager 680 systems (GE Healthcare)."}, "[2]": {"test_system": "p-AMPK in HF cells of Adipoq−/− mice", "experiment": "IF p-AMPK in HF cells of Adipoq−/− mice after topical P5", "type": "in vivo", "settings": "Adipoq−/− mouse, topical 0.1 mM P5", "description": "We also evaluated P5 effect in Adipoq ^−/− mouse (Ma et al, [2002]). […] Skin pigmentation was prominent in P5‐treated Adipoq ^−/− mice at day 14 (Fig 4E). […] At day 35, unlike vehicle‐treated Adipoq ^−/− mice showing little pigmentation, P5‐treated Adipoq ^−/− mice manifested hairs with pigmentation (Fig 4E). […] The DP cells in P5‐treated Adipoq ^−/− mice expressed versican (Fig 4G).\nParaffin‐embedded mouse cutaneous back tissue was sectioned (4 μm thickness) and stained with hematoxylin and eosin. […] IF intensity was observed and recorded with a Nikon Eclipse Ni‐E fluorescence microscope (Nikon).\nFor the hair cycle modulation experiment, Adipoq ^−/− (stock #008195; JAX) (Ma et al, [2002]), Adipor1 ^−/− (Yamauchi et al, [2007]; Okada‐Iwabu et al, [2013]), or C57BL/6 (KOATECH) female mice was used (Müller‐Röver et al, [2001]). […] The mouse hair growth score (a value from 0 to 100 based on the skin pigmentation and hair shaft density) was monitored and documented at designated days with the experimenters being blind to the conditions, following a previous study (Chai et al, [2019]). […] On day 35, we obtained dorsal cutaneous tissue for histological analysis: anagen induction scores (calculated using an assigned arbitrary score; telogen = 1, anagen I–VI = 2–7) (Müller‐Röver et al, [2001])."}, "HGF protein": {"test_system": "HGF protein", "experiment": "Growth factor protein quantitation in DP cell medium, HGF", "type": "cell-based, human", "settings": "for protein_HGF: DP cell medium", "description": "Next, we investigated the downstream effects of P5 on hair growth factor genes and proteins in DP cells. […] We tested whether P5 can also increase the mRNA levels and proteins of hair growth factors in DP cells: IGF‐1, VEGF, HGF, platelet‐derived growth factor alpha (PDGFA), and fibroblast growth factor (FGF) 7, which are known to induce or maintain the anagen phase of the hair cycle (Jindo et al, [1994]; Philpott et al, [1994]; Yano et al, [2001]; Jang, [2005]; Tomita et al, [2006]; Iino et al, [2007]).\nHuman DP cells were grown on a 100‐mm cell culture dish to 100% confluency. After washed by PBS three times, the cells were cultured with serum‐free DMEM and treated with P5. After 48 h, the medium was collected and filtered by a […]. The filtrate was then concentrated using a centrifugal concentrator (Vivaspin 6, 10‐kDa molecular weight cutoff, centrifuged 2,600 g at 4°C for 13 min, Sartorius Stedim Biotech). The signals of each protein in the concentrated media were detected and quantified, based on the enzyme‐linked immunosorbent assay (Human Cytokine Antibody Array C2000, RayBiotech)."}},
  "data": [
    {"substance": "GLYYF [P5, GST-fused (GST-P5) in pulldown assays]", "values": [
      {"measurement": "p-AMPK intensity after AdipoR1 siRNA transfection, DP cells", "setting": "[1]", "result": "intensity was reduced"},
      {"measurement": "p-AMPK in ORS cells of telogen HFs", "setting": "[2]", "result": "upregulation"},
      {"measurement": "protein_HGF", "setting": "HGF protein; P5 5μM, relative to Control = 1, replicate 1", "result": 1.103},
      {"measurement": "protein_HGF", "setting": "HGF protein; P5 5μM, relative to Control = 1, replicate 2", "result": 1.31},
      {"measurement": "protein_HGF", "setting": "HGF protein; P5 5μM, relative to Control = 1, replicate 3", "result": 1.677},
      {"measurement": "protein_HGF", "setting": "HGF protein; P5 25μM, relative to Control = 1, replicate 1", "result": 1.711},
      {"measurement": "protein_HGF", "setting": "HGF protein; P5 25μM, relative to Control = 1, replicate 2", "result": 2.432},
      {"measurement": "protein_HGF", "setting": "HGF protein; P5 25μM, relative to Control = 1, replicate 3", "result": 3.924},
      {"measurement": "HGF protein expression level", "setting": "HGF protein; P5-treated DP cells, 48 h medium, n = 3", "result": "elevated"}
    ]}
  ]
}
